Data on 10 molecules can be found in US20050180932A1, “Ultraviolet absorption compositions” (AJINOMOTO CO. INC, priority 2002, published 2005).

Counter-ions that a name gives are not always drawn.

A short description of series [1]: Wavelength at the maximum UV absorption and molar absorption coefficient (UV spectrometer, water/alcohol solution). The class given is physicochemical. The conditions noted are these: for Amide-containing guanidine derivative: Mol.Abs.Coef. (ε) / Starting UV absorbent: Mol.Abs.Coef. (ε): in M-1cm-1 (unit assumed); for Amide-containing guanidine derivative: Wavelength / Starting UV absorbent: Wavelength: UV absorption maximum. On the procedure: The wavelength showing the maximum absorption was measured by means of a UV spectrometer in a water and/or alcohol solution of R^1COOH or its salt as mentioned in detail in the Examples.
Test 1. Wavelength at the Maximum Absorption

Series [2] can be described thus: Solubility in water at room temperature. The format is physicochemical.

With `COc1ccc(C=CC(=O)N[C@@H](CCCNC(=N)N)C(=O)O)cc1` [Compound 3, N-paramethoxycinnamoylarginine], in series [1] (30% methanol solution), the “Amide-containing guanidine derivative: Mol.Abs.Coef. (ε)” value amounted to 24977 and the “Amide-containing guanidine derivative: Wavelength” value is 307 nm.

Turning to `COc1ccc(C=CC(=O)N[C@@H](CCCNC(=N)N)C(=O)O)cc1` [Compound 3 (HCl salt)], in series [2], the “Solubility of amide-containing guanidine derivative” value was more than 15 wt %.

Consider `COc1ccc(C=CC(=O)O)cc1` [Starting UV absorbent of Prep.3, p-methoxycinnamic acid, reference compound], for which the “Solubility of starting UV absorbent” value in series [2] is recorded as less than 0.1 wt %. Besides, in series [1] (30% methanol solution), the “Starting UV absorbent: Mol.Abs.Coef. (ε)” value is 20845 and the “Starting UV absorbent: Wavelength” value was found to be 307 nm.

Regarding `CCCCCCCCCCCCOc1ccc(C=CC(=O)O)cc1` [Starting UV absorbent of Prep.4, p-dodecyloxycinnamic acid, reference compound], the “Solubility of starting UV absorbent” value in series [2] is recorded as less than 0.01 wt %. Also, in series [1] (40% isopropyl alcohol solution), the “Starting UV absorbent: Mol.Abs.Coef. (ε)” value is recorded as 21246 and the “Starting UV absorbent: Wavelength” value is reported as 309 nm. For `N=C(N)NCCCCNC(=O)C=Cc1ccccc1.N=C(N)NCCCCNC(=O)C=Cc1ccccc1.O=S(=O)(O)O` [Compound 1, N-cinnamoylamidobutylguanidine ½ sulfate], in series [1] (30% methanol solution), the “Amide-containing guanidine derivative: Mol.Abs.Coef. (ε)” value is recorded as 21885 and the “Amide-containing guanidine derivative: Wavelength” value is listed as 280 nm. For the molecule `CCCCCCCCCCCCOc1ccc(C=CC(=O)NCCCCNC(=N)N)cc1.Cl` [Compound 5, N-paradodecyloxycinnamoylamidobutylguanidine hydrochloride], the “Solubility of amide-containing guanidine derivative” value in series [2] is listed as more than 7 wt %. On the same count and under the same terms, to `Cl.N=C(N)NCCCCNC(=O)C=Cc1ccccc1` [Compound 2, N-cinnamoylamidobutylguanidine hydrochloride] belongs more than 15 wt %. As for `O=C(O)C=Cc1ccccc1` [Starting UV absorbent of Prep.1, cinnamic acid, reference compound], in series [1] (30% methanol solution), the “Starting UV absorbent: Mol.Abs.Coef. (ε)” value amounted to 18661 and the “Starting UV absorbent: Wavelength” value stood at 279 nm. `CCCCCCCCCCCCOc1ccc(C=CC(=O)NCCCCNC(=N)N)cc1.CCCCCCCCCCCCOc1ccc(C=CC(=O)NCCCCNC(=N)N)cc1.O=S(=O)(O)O` [Compound 4, N-paradodecyloxycinnamoylamidobutylguanidine ½ sulfate]: in series [1] (40% isopropyl alcohol solution), the “Amide-containing guanidine derivative: Mol.Abs.Coef. (ε)” value turned out to be 24122 and the “Amide-containing guanidine derivative: Wavelength” value is recorded as 307 nm. Consider `CCCCCCCCCCCCOc1ccc(/C=C/C(=O)N[C@@H](CCCNC(=N)N)C(=O)O)cc1` [Compound 6, N-paradodecyloxycinnamoylarginine], for which, in series [1] (40% isopropyl alcohol solution), the “Amide-containing guanidine derivative: Mol.Abs.Coef. (ε)” value stood at 25740 and the “Amide-containing guanidine derivative: Wavelength” value stood at 308 nm.
